From article PMC12591163, “Controllable Generation of Pathogen‐Specific Antimicrobial Peptides Through Knowledge‐Aware Prompt Diffusion Model” (Advanced Science, 2025)
Ends that are not written are not given here. Peptide text beside a SMILES is read from it.

Tests used:
Assay type in all cases: cell-based
E. coli ATCC 25922 = details: for MIC against E. coli: ATCC 25922; for antimicrobial activity against E. coli (in words): activity threshold defined as MIC ⩽ 128 µg mL^−1
Protocol: (§1) 2.3Details of the wet-lab evaluation […]
(§2) Pathogens used for minimum inhibitory concentration (MIC) measurements included E. coli ATCC 25922 and S. aureus
(§3) ATCC 25923. Both pathogens were streaked on Luria–Bertani (LB) agar and incubated at 37°C overnight. Individual colonies
(§4) were then selected from the agar plates and transferred to Mueller–Hinton broth (MHB) (Hopebio, China) for further cultivation.
(§5) The cultures were shaken at 160 rpm at 37°C overnight. Once the turbidity of the bacterial suspensions reached between 0.4
(§6) and 0.6 McFarland (MCF), the suspensions were diluted 20-fold with MHB. For the preparation of antimicrobial peptide
(§7) solutions, chemically synthesized peptides were dissolved in either ultrapure water (Biosharp, China) or dimethyl sulfoxide
(§8) (DMSO) (Biosharp, China) to achieve a stock concentration of […]. This stock solution was then further diluted with
(§9) MHB to obtain the concentration gradient of 2 to 512 µg/mL for testing. Subsequently, 200 µL of each peptide dilution was
(§10) pipetted into 96-well plates, followed by the addition of 10 µL of the diluted bacterial suspension to each well. The plates were
(§11) incubated at 37°C for 14-20 hours, and MIC values were determined as the lowest peptide concentration at which no bacterial
(§12) growth was observed. Antimicrobial activity assays were conducted in 96-well plates with […] experimental groups as follows:
(§13) 1) blank control group, containing 200 µL of MHB without bacterial suspension; 2) bacterial control group, with 200 µL of
(§14) MHB and 10 µL of bacterial suspension without peptide; 3) peptide treatment groups, consisting of 200 µL of MHB containing
(§15) varying peptide concentration gradient of 2 to 512 µg/mL along with 10 µL of bacterial suspension. All experiments were
(§16) conducted in triplicate. The positive (proper growth of bacteria) and negative (sterility) controls were included.
(§17) The Cell Counting Kit-8 (CCK-8) assay was employed to evaluate the cytotoxicity of peptides against human lung epithelial
(§18) Beas-2B cells. The cells were seeded at a density of 5× 10^3 cells per 100 µL in 96-well plates and cultured overnight at 37°C
(§19) with 5% CO2. Subsequently, the cells were treated with 100 µL of F-12K medium (Procell, China) containing the peptide
(§20) concentration gradient of 4 to 512 µg/mL and incubated for 24 hours. After incubation, 10 µL of CCK-8 solution (Abbkine,
(§21) China) was added to each well, and the cells were incubated for an additional 4 hours at 37°C. Optical density (OD) at 450 nm
(§22) was measured using an automated microplate reader (BioTek, USA). Each treatment was performed in six duplicate wells.
(§23) Cell viability was calculated as the percentage relative to the control, using the formula: Cell viability (%) = [(OD[peptide] -
(§24) OD[blank]) / (OD[control] - OD[blank])] × 100%.
(§25) 3.1More landscape for peptide datasets
(§26) For the diversity of GO terms, the biological process category encompasses 3,430 terms (accounting for 47% of the total terms)
(§27) and 245,683 peptides (representing 22% of the total peptides); the cellular component category includes 819 terms (11%) and
(§28) 469,675 peptides (43%); the molecular function category covers 3,017 terms (42%) and 389,436 peptides (35%). In the context
(§29) of pathogen diversity (Table 1), the Gram-positive group comprises 24 distinct pathogens (accounting for 43% of the total
(§30) pathogen numbers), and 31,726 peptide terms (representing 49% of the total peptide numbers). The Gram-negative group is
(§31) characterized by 17 pathogens (constituting 30% of the pathogen diversity), and 28,206 peptide terms (making up 44% of the […]

S. aureus ATCC 25923 = tested on: S. aureus ATCC 25923
Protocol: as §1, §2, §3, §4, §5, §6, §7, §8, §9, §10, §11, §12, §13, §14, §15, §16, §17, §18, §19, §20, §21, §22, §23, §24, §25, §26, §27, §28, §29, §30, §31

[1] = tested on: human lung epithelial Beas-2B cells; details: 24 h

For KRTSQQRLQRLITVGRFRLW [Pep7], the “MIC against E. coli” value (E. coli ATCC 25922) was at least 512 µg/mL.

With MARRKPLGKKLRLRAAFK [Pep8] the “MIC against E. coli” value (E. coli ATCC 25922) was at least 512 µg/mL.

AKRYYWRWFKHWYRFAHG [Pep10] was tested, and the “antimicrobial activity against E. coli (in words)” value (E. coli ATCC 25922) was “exhibit antimicrobial activity”, the “MIC against S. aureus” value (S. aureus ATCC 25923; ATCC 25923) was 16 µg/mL and the “antimicrobial activity against S. aureus (in words)” value (S. aureus ATCC 25923; activity threshold defined as MIC ⩽ 128 µg mL^−1) was “exhibit antimicrobial activity”. The “peptide concentration causing 50% cytotoxicity (CC50)” value [1] was at least 256 µg/mL.

`CC(C)C[C@H](NC(=O)[C@H](Cc1ccc(O)cc1)NC(=O)CNC(=O)[C@H](CO)NC(=O)[C@H](CC(C)C)NC(=O)[C@H](CCCNC(=N)N)NC(=O)[C@H](CCCNC(=N)N)NC(=O)[C@@H](NC(=O)[C@H](Cc1ccccc1)NC(=O)[C@H](CC(C)C)NC(=O)[C@@H](N)Cc1ccccc1)C(C)C)C(=O)N[C@@H](CC(N)=O)C(=O)N[C@@H](Cc1ccc(O)cc1)C(=O)N[C@H](C(=O)N[C@H](C(=O)N[C@@H](CCCNC(=N)N)C(=O)N[C@@H](CS)C(=O)N[C@@H](CCCNC(=N)N)C(=O)N[C@@H](CCCNC(=N)N)C(=O)N[C@@H](Cc1ccccc1)C(=O)N[C@@H](CCCCN)C(=O)N[C@@H](Cc1ccccc1)C(=O)N[C@@H](CS)C(=O)N[C@@H](C)C(=O)O)C(C)C)[C@@H](C)O` [Pep6] (H-FLFVRRLSGYLNYTVRCRRFKFCA-OH; N-terminus and C-terminus assumed) was tested, and the “antimicrobial activity against E. coli (in words)” value (E. coli ATCC 25922) was “demonstrated the activity”.
